Assays:
[1] = system: IL-6 level in LPS-induced A549 cells; experiment: IL-6 level in LPS-induced A549 cells (ELISA); type: cell-based, human; settings: 0.5 μg/mL LPS, 4.94-400 μM, 48 hours, vs LPS alone, p<0.05
Protocol: In this example, A549 cells (human alveolar basal epithelial cells) were used to assess the effect of the present NIM-HA conjugate (CA102N) on the IL-6 level.
A549 cells in 600 μL F-12K medium were seeded in a density of 5×10^4 per 24-well and incubated overnight. The next day, the medium was discarded and replaced with a fresh medium containing 1 μg/mL LPS with 0, 0.1, 0.2, 0.4 and 0.8 mg/mL CA102N (eq. 0, 5.9, 11.8, 23.6 and 47.2 μM) conjugate or 5 μg/mL (12.7 μM) dexamethasone, which was then incubated for 48 hours. Then, 300 μL of supernatants were collected, and the IL-6 level was measured using a Human IL-6 Uncoated ELISA kit (Catalogue No. 88-7066; Invitrogen). Cells not treated with LPS are used as the negative control, whereas cells treated with LPS but not CA102N are used as the positive control. The results were summarized in FIG. 3, and the data were expressed as mean±standard deviation (SD).
A549 cells in 600 μL F-12K medium were seeded in a density of 2×10^4 per 24-well and incubated overnight. […] Then, 300 μL of supernatants were collected, and the IL-6 level was measured using Human IL-6 Uncoated ELISA kit (Catalogue No. 88-7066; Invitrogen). […] The results were summarized in FIG. 4, and the data were expressed as mean±standard deviation (SD).

[2] = system: SARS-CoV-2 pseudotyped lentivirus; type: cell-based
[3] = prior studies; cited from earlier work
[4] = system: SARS-CoV-2 pseudovirus; experiment: In vivo SARS-CoV-2 pseudovirus infection, lung luminescence (IVIS); parameters: species or system BALB/c mice; settings: vs positive control
[5] = system: IL-6, KC/GRO and MCP-1; experiment: Serum IL-6 and IL-6 downstream chemokines in CT26 tumor-bearing mice; type: in vivo; settings: nimesulide alone 1.5 mg/kg and 5.3 mg/kg i.v.
Protocol: When the tumor volumes reached 25-50 mm^3, tumor-bearing mice were randomized to six groups: vehicle control, 50 mg/kg NIM-HA (eq. 1.3 mg/kg Nim) conjugate, 100 mg/kg (eq. 2.6 mg/kg Nim) NIM-HA conjugate, 200 mg/kg (eq. 5.2 mg/kg Nim) NIM-HA conjugate, 1.5 mg/kg nimesulide, and 5.3 mg/kg nimesulide. The vehicle or test samples were i.v. injected two times weekly for two weeks.
The serum level of IL-6 and two IL-6 downstream chemokines (KC/GRO and MCP-1) were measured following conventional protocols.

CC(=O)NC1C(O)OC(CO)C(O)C1OC1OC(C(=O)Nc2ccc(NS(C)(=O)=O)c(Oc3ccccc3)c2)C(O)C(O)C1O (stereo not drawn) [NIM-HA disaccharide conjugate]
IL-6 level [1]: substantially decrease the IL-6 level in LPS-treated cells in a dose-dependent manner

CS(=O)(=O)Nc1ccc([N+](=O)[O-])cc1Oc1ccccc1 [nimesulide, N-(4-nitro-2-phenoxyphenyl)methanesulfonamide]
inhibition of SARS-CoV-2 pseudovirus entry (in words) [2]: cannot inhibit SARS-CoV-2 pseudovirus infection by blocking the viral entry
hepatotoxicity [3]: significantly associated with hepatotoxicity
SARS-CoV-2 pseudovirus infection (lung luminescence) ([4]; 4 mg/kg nimesulide i.v. 1 hour before intra-tracheal pseudovirus, 24 hours, p<0.05): inhibit significantly compared to the positive control
IL-6 blockade [5]: cannot elicit any effect on IL-6 blockade

hyaluronic acid [HA]
SARS-CoV-2 pseudovirus infection (lung luminescence) ([4]; HA group (dose not given)): no significant difference between the HA group and the positive control
